The values below come from patent US20210214375A1 (LUNDBECK LA JOLLA RESEARCH CENTER, INC., priority 2017, published 2021).

One experiment concerns the target T1, ABHD6 (Mus musculus, UniProt Q8R2Y0).
T1 construct: Brain; from tissue; host or cells: mouse brain proteome
T1 sequence (Q8R2Y0 1-336): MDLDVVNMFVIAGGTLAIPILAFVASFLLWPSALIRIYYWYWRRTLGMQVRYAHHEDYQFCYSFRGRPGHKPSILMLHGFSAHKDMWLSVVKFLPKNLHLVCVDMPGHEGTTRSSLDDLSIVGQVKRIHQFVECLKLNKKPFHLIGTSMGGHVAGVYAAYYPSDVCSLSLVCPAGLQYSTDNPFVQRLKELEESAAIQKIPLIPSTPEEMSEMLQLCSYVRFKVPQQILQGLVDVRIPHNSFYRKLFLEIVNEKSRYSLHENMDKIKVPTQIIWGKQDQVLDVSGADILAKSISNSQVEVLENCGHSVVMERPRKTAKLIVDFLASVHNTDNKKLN
Nature of the experiment: In vitro competitive activity-based protein profiling, mouse brain proteome, ABHD6. Type of experiment: biochemical. The note with it: mouse. As for the experimental part: [Worded in the source for another target; this target is reported under the same test.] (§1) Proteomes (human prefrontal cortex or cell membrane fractions) (50 μL, 1.0 mg/mL total protein concentration) were preincubated with varying concentrations of inhibitors at 37° C. After 30 min, FP—Rh or HT-01 (1.0 μL, 50 μM in DMSO) was added and the mixture was incubated for another 30 min at room temperature. Reactions were quenched with SDS loading buffer (15 μL-4×) and run on SDS-PAGE.

For a further experiment, the target named is T2, MGLL (Mus musculus, UniProt O35678).
T2 construct: Brain; from tissue; host or cells: mouse brain proteome
T2 sequence (O35678 1-303): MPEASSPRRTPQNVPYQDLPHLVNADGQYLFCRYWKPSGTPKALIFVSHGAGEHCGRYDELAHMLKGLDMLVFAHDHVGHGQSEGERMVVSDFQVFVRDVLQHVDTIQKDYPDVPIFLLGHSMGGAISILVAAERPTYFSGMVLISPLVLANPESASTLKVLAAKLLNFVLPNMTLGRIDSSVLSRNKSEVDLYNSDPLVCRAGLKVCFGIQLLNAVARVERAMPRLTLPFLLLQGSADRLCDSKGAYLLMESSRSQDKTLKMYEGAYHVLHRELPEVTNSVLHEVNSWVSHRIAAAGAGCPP
Nature of the experiment: In vitro competitive activity-based protein profiling, mouse brain proteome. In kind it is biochemical. The procedure:
[Worded in the source for another species; this species is reported under the same test.] as §1

A further experiment addresses T3, MAGL (Mus musculus, UniProt O35678).
T3 construct: from tissue; host or cells: brain of wild-type C57Bl/6J mice
T3 sequence (O35678 1-303): T2 sequence (O35678 1-303)
Briefly: Mouse brain proteomes from inhibitor treated mice (oral gavage, brain proteomes analyzed 4 h after administration). Type of experiment: in vivo, mouse (C57Bl/6J). Conditions: brain proteome 4 h after administration, read-out: % Inh 5 mg/kg MGLL (Mouse). The gist of the method: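 Wild-type C57Bl/6J mice dosed orally in polyethylene glycol vehicle; brains removed 4 h post-dose and brain proteomes prepared and analysed for MAGL and serine hydrolase activity by previously established methods.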

Where only a bound is given, the exact number is not on record here.

Take `CC(=O)N1CCC2(CCN(c3cc(Cl)ccc3CN3CCN(C(=O)OC(C(F)(F)F)C(F)(F)F)CC3)CC2)C1` [Example 178, 1,1,1,3,3,3-Hexafluoropropan-2-yl 4-(2-(2-acetyl-2,8-diazaspiro[4.5]decan-8-yl)-4-chlorobenzyl) piperazie-1-carboxylate]: the concentration for half-maximal inhibition (IC50) – broadly, the concentration at which inhibition is half-maximal – at ABHD6 is greater than 1000 nM; at MGLL it was less than 100 nM. Besides, the inhibition at 5 mg/kg at MAGL was no less than 75%.

On to `CN1CC2(CCN(c3cc(C(F)(F)F)ccc3CN3CCN(C(=O)OC(C(F)(F)F)C(F)(F)F)CC3)C2)C1` [Example 179, 1,1,1,3,3,3-Hexafluoropropan-2-yl 4-(2-(2-methyl-2,6-diazaspiro[3.4]octan-6-yl)-4-(trifluoromethyl)benzyl)piperazine-1-carboxylate], for which the half-maximal inhibitory concentration (IC50) was greater than 1000 nM at ABHD6 and less than 100 nM at MGLL. Moreover, the inhibition at 5 mg/kg on MAGL is no less than 75%.

Turning to `O=C(OC(C(F)(F)F)C(F)(F)F)N1CCC2(CCN(Cc3ccc(Cl)cc3N3CCOCC3)CC2)C1` [Example 181, 1,1,1,3,3,3-Hexafluoropropan-2-yl 8-(4-chloro-2-molpholinobenzyl)-2,8-diazaspiro[4.5]decane-2-carboxylate], the figures for the IC50 on ABHD6 and at MGLL were greater than 1000 nM and less than 100 nM, respectively. For the same molecule, the inhibition at 5 mg/kg on MAGL is no less than 75%.

For the molecule `CN1CCC2(CCN(c3cc(C(F)(F)F)ccc3CN3CCN(C(=O)OC(C(F)(F)F)C(F)(F)F)CC3)CC2)C1` [Example 182, 1,1,1,3,3,3-Hexafluoropropan-2-yl 4-(2-(2-methyl-2,8-diazaspiro[4.5]decan-8-yl)-4-(trifluoromethyl)benzyl)piperazine-1-carboxylate], the IC50 is greater than 1000 nM on ABHD6 and less than 100 nM on MGLL. The inhibition at 5 mg/kg on MAGL was no more than 25%.

Consider `CCN1CC2(CCN(c3cc(C(F)(F)F)ccc3CN3CCN(C(=O)OC(C(F)(F)F)C(F)(F)F)CC3)C2)C1` [Example 184, 1,1,1,3,3,3-Hexafluoropropan-2-yl 4-(2-(2-ethyl-2,6-diazaspiro[3.4]octan-6-yl)-4-(trifluoromethyl)benzyl)piperazine-1-carboxylate], for which the IC50 at ABHD6 is greater than 1000 nM; on MGLL, less than 100 nM. Further, the inhibition at 5 mg/kg at MAGL is no more than 25%.

On to `O=C(OC(C(F)(F)F)C(F)(F)F)N1CCC2(CCN(Cc3ccc(C(F)(F)F)cc3N3CCCCC3)CC2)C1` [Example 187, 1,1,1,3,3,3-Hexafluoropropan-2-yl 8-(2-(piperidin-1-yl)-4-(trifluoromethyl)benzyl)-2,8-diazaspiro[4.5]decane-2-carboxylate], for which the figures for the half-maximal inhibitory concentration (IC50) at ABHD6 and at MGLL were greater than 1000 nM and less than 100 nM, respectively. The inhibition at 5 mg/kg on MAGL was no less than 75%.

`O=C(OC(C(F)(F)F)C(F)(F)F)N1CCC2(CCN(Cc3ccc(C(F)(F)F)cc3N3CC4CCC(C3)O4)CC2)C1` [Example 190, 1,1,1,3,3,3-Hexafluoropropan-2-yl 8-(2-(8-oxa-3-azabicyclo[3.2.1]octan-3-yl)-4-(trifluoromethyl)benzyl)-2,8-diazaspiro[4.5]decane-2-carboxylate]: the IC50 at ABHD6 was greater than 1000 nM; at MGLL, less than 100 nM. The inhibition at 5 mg/kg at MAGL was no less than 75%.

In the case of `O=C(OC(C(F)(F)F)C(F)(F)F)N1CCC2(CCN(Cc3ccc(Cl)cc3N3CCCCC3)CC2)C1` [Example 191, 1,1,1,3,3,3-Hexafluoropropan-2-yl 8-(4-chloro-2-(piperidin-1-yl)benzyl)-2,8-diazaspiro[4.5]decane-2-carboxylate], the IC50 on ABHD6 is greater than 1000 nM; on MGLL it was less than 100 nM. The inhibition at 5 mg/kg on MAGL was no less than 75%.

With `O=C(OC(C(F)(F)F)C(F)(F)F)N1CCC2(CCN(Cc3ccc(C(F)(F)F)cc3N3CCC(F)CC3)CC2)C1` [Example 192, 1,1,1,3,3,3-Hexafluoropropan-2-yl 8-(2-(4-fluoropiperidin-1-yl)-4-(trifluoromethyl)benzyl)-2,8-diazaspiro[4.5]decane-2-carboxylate], the half-maximal inhibitory concentration (IC50) at ABHD6 is greater than 1000 nM; on MGLL, less than 100 nM. Further, the inhibition at 5 mg/kg on MAGL fell in the range of 25 to 75%.
